Results: paper PMC8165102 (International Journal of Nanomedicine, 2021)
≈ marks a conversion by molar mass, not a printed value.

How the values were obtained:
[1] = Surfactant-assisted rapid release of BF211@Lipo; type: physicochemical
[2] = test system: guinea pig papillary muscle; details: 0.4 µM; cited from earlier work
[3] = cited from earlier work

Compound	release-promoting effect on BF211@Lipo [1]	effect on papillary muscle [2]	solubility [3]
Tween 80	weak and unregulated release-promoting effect		
C[C@]12CC[C@H](O)C[C@H]1CC[C@@H]1[C@@H]2CC[C@]2(C)[C@@H](c3ccc(=O)oc3)CC[C@]12O [BF, Bufalin]		arrhythmias	10 µg/mL (≈ 25.9 µM)
